In brackets after ≈: the same amount, converted by molar mass. Activity calls are given as the source filed them. No cut-off for these calls is given here.
Columns and labels:
Type in all cases: functional
Phytophthora infestans = assay: Antifungal activity against Phytophthora infestans after 48 to 72 hrs by disk diffusion method
Klebsiella pneumoniae [1] = assay: Bactericidal activity against Klebsiella pneumoniae after 24 hrs by visual and spectrophotometric analysis
Staphylococcus aureus [2] = assay: Bactericidal activity against Staphylococcus aureus after 24 hrs by visual and spectrophotometric analysis
Bacillus subtilis [3] = assay: Ratio of MBC to MIC against Bacillus subtilis
Bacillus subtilis [4] = assay: Antibacterial activity against Bacillus subtilis after 24 hrs by visual and spectrophotometric analysis
Klebsiella pneumoniae [5] = assay: Ratio of MBC to MIC against Klebsiella pneumoniae
Staphylococcus aureus [6] = assay: Ratio of MBC to MIC against Staphylococcus aureus
Bacillus subtilis [7] = assay: Bactericidal activity against Bacillus subtilis after 24 hrs by visual and spectrophotometric analysis
Staphylococcus aureus [8] = assay: Antibacterial activity against Staphylococcus aureus after 24 hrs by visual and spectrophotometric analysis
Klebsiella pneumoniae [9] = assay: Antibacterial activity against Klebsiella pneumoniae after 24 hrs by visual and spectrophotometric analysis
Escherichia coli [10] = assay: Antibacterial activity against Escherichia coli after 24 hrs by visual and spectrophotometric analysis
Escherichia coli [11] = assay: Bactericidal activity against Escherichia coli after 24 hrs by visual and spectrophotometric analysis
Escherichia coli [12] = assay: Ratio of MBC to MIC against Escherichia coli

Row | Compound | MIC (Phytophthora infestans) [µg/mL] | MBC (Klebsiella pneumoniae [1]) | MBC (Staphylococcus aureus [2]) | Ratio (Bacillus subtilis [3]) | MIC (Bacillus subtilis [4]) | Ratio (Klebsiella pneumoniae [5]) | Ratio (Staphylococcus aureus [6]) | MBC (Bacillus subtilis [7]) | MIC (Staphylococcus aureus [8]) | MIC (Klebsiella pneumoniae [9]) | MIC (Escherichia coli [10]) | MBC (Escherichia coli [11]) | Ratio (Escherichia coli [12])
1 | COc1ccc(C2OC(c3ccccc3)=C(c3ccccc3)N2NC(=S)Nc2ccc(C)cc2)cc1 (configuration not stated) | 14 (≈ 28.4 µM) |  |  |  |  |  |  |  |  |  |  |  | 
2 | COc1ccc(C2OC(c3ccccc3)=C(c3ccccc3)N2NC(=S)Nc2ccccc2C)cc1 (configuration not stated) |  | 50 µg/mL (≈ 101 µM) | 100 µg/mL (≈ 203 µM) | 2.5 | 20 µg/mL (≈ 40.5 µM) | 2 | 3.3 | 50 µg/mL (≈ 101 µM) | 30 µg/mL (≈ 60.8 µM) | 25 µg/mL (≈ 50.6 µM) | inactive | inactive | 
3 | Oc1ccc(C2OC(c3ccccc3)=C(c3ccccc3)N2NC(=S)Nc2ccc(Cl)cc2)cc1 (configuration not stated) | 16 (≈ 32 µM) |  |  |  |  |  |  |  |  |  |  |  | 
4 | O=C(O)c1cn(C2CC2)c2cc(N3CCNCC3)c(F)cc2c1=O [CIPROFLOXACIN] |  | 10.2 µg/mL (≈ 30.9 µM) | 12.5 µg/mL (≈ 37.7 µM) |  | 10 µg/mL (≈ 30.2 µM) |  |  | 25 µg/mL (≈ 75.4 µM) | 6.5 µg/mL (≈ 19.6 µM) | 6.25 µg/mL (≈ 18.9 µM) |  | 25 µg/mL (≈ 75.4 µM) | 
5 | COc1ccc(C2OC(c3ccccc3)=C(c3ccccc3)N2NC(=S)Nc2ccc(Cl)cc2)cc1 (configuration not stated) | 16 (≈ 31.1 µM) |  |  |  |  |  |  |  |  |  |  |  | 
6 | Cc1ccc(NC(=S)NN2C(c3ccccc3)=C(c3ccccc3)OC2c2ccc(O)cc2)cc1 (configuration not stated) | 14 (≈ 29.2 µM) |  |  |  |  |  |  |  |  |  |  |  | 
7 | COc1ccc(C2OC(c3ccccc3)=C(c3ccccc3)N2NC(=S)Nc2ccccc2OC)cc1 (configuration not stated) |  | inactive | 100 µg/mL (≈ 196 µM) | 1.6 | 30 µg/mL (≈ 58.9 µM) |  | 2.5 | 50 µg/mL (≈ 98.1 µM) | 40 µg/mL (≈ 78.5 µM) | inactive | inactive | inactive | 
8 | COc1ccccc1NC(=S)NN1C(c2ccccc2)=C(c2ccccc2)OC1c1ccc(O)cc1 (configuration not stated) |  | 50 µg/mL (≈ 101 µM) | inactive |  | inactive | 2 |  | inactive | inactive | 25 µg/mL (≈ 50.4 µM) | inactive | inactive | 
9 | Cc1ccccc1NC(=S)NN1C(c2ccccc2)=C(c2ccccc2)OC1c1ccc(O)cc1 (configuration not stated) |  | 100 µg/mL (≈ 209 µM) | inactive |  | inactive | 2 |  | inactive | inactive | 50 µg/mL (≈ 104 µM) | inactive | inactive | 
10 | Oc1ccc(C2OC(c3ccccc3)=C(c3ccccc3)N2NC(=S)Nc2ccccc2Cl)cc1 (configuration not stated) |  | inactive | 50 µg/mL (≈ 100 µM) | 2.5 | 40 µg/mL (≈ 80 µM) |  | 1.6 | 100 µg/mL (≈ 200 µM) | 30 µg/mL (≈ 60 µM) | inactive | inactive | inactive | 
11 | COc1ccc(NC(=S)NN2C(c3ccccc3)=C(c3ccccc3)OC2c2ccc(O)cc2)cc1 (configuration not stated) | 16 (≈ 32.3 µM) |  |  |  |  |  |  |  |  |  |  |  | 
12 | COc1ccc(C2OC(c3ccccc3)=C(c3ccccc3)N2NC(=S)Nc2ccccc2Cl)cc1 (configuration not stated) |  | inactive | inactive |  | inactive |  |  | inactive | inactive | inactive | 25 µg/mL (≈ 48.6 µM) | 50 µg/mL (≈ 97.3 µM) | 2
13 | Oc1ccc(C2OC(c3ccccc3)=C(c3ccccc3)N2NC(=S)Nc2ccccc2)cc1 (configuration not stated) | 10 (≈ 21.5 µM) |  |  |  |  |  |  |  |  |  |  |  | 
14 | COC1=CC(=O)C[C@@H](C)[C@]12Oc1c(Cl)c(OC)cc(OC)c1C2=O [GRISEOFULVIN] | 20 (≈ 56.7 µM) |  |  |  |  |  |  |  |  |  |  |  | 

Source: ChEMBL document CHEMBL4052735, “One-pot two-step facile synthesis of 2,3,4,5-tetra substituted dihydrooxazoles and their antimicrobial activity” (2017)
